Values of other authors as cited in publication PMC6101361 (PLoS ONE, 2018).

System: anti-ß1EC2-induced heart failure in rats
Settings: daily applications; ref [20]
From the text: The observed trend to ...

For `CC(C)NCC(O)COc1ccc(COCCOC(C)C)cc1` (stereo not shown) [bisoprolol], the “effect on anti-ß1EC2–induced heart failure” value is listed as “only delayed progression of anti-ß1EC2–induced heart failure”.
